ChEMBL document CHEMBL2424577, “Cytotoxicity and DNA-binding property of water-soluble naphthalene diimide derivatives bearing 2-oligoethoxy ethanamine side chain end-labeled with tertiary amino groups” (Med Chem Res, 2013)
The source made the active and inactive calls. No cut-off for these calls is given here.

Key:
DNA [1] = test: Binding affinity to calf thymus DNA in phosphate buffer at pH 7.4 assessed as hypochromicity at 5 x 10 '-5 M by Uv-Vis spectroscopy; type: nucleic-acid assay; conditions: Bos taurus
DNA [2] = test: Binding affinity to calf thymus DNA in phosphate buffer at pH 7.4 at 5 x 10 '-5 M by Uv-Vis spectroscopy; type: nucleic-acid assay; conditions: Bos taurus
[3] = Binding affinity to G-quadruplex DNA (unknown origin) in phosphate buffer at pH 7.4 assessed as hypochromicity at 5 x 10 '-5 M by Uv-Vis spectroscopy
K562 = test: Antiproliferative activity against human K562 cells after 48 hrs by MTT assay; type: functional, cell-based; conditions: K562, 48 h
[4] = Binding affinity to G-quadruplex DNA (unknown origin) in phosphate buffer at pH 7.4 at 5 x 10 '-5 M by fluorescence spectroscopy
DNA [5] = test: Binding affinity to calf thymus DNA in phosphate buffer at pH 7.4 at 2 x 10 '-5 M by CD spectra analysis; type: nucleic-acid assay; conditions: Bos taurus
HeLa = test: Antiproliferative activity against human HeLa cells after 48 hrs by MTT assay; type: functional, cell-based
[6] = Binding affinity to G-quadruplex DNA (unknown origin) in phosphate buffer at pH 7.4 at 5 x 10 '-5 M by Uv-Vis spectroscopy
[7] = Binding affinity to G-quadruplex DNA (unknown origin) in phosphate buffer at pH 7.4 at 2 x 10 '-5 M by CD spectra analysis
A549 = test: Antiproliferative activity against human A549 cells after 48 hrs by MTT assay; type: functional, cell-based; conditions: A549, 48 h
DNA [8] = test: Binding affinity to calf thymus DNA in phosphate buffer at pH 7.4 at 5 x 10 '-5 M by fluorescence spectroscopy; type: nucleic-acid assay; conditions: Bos taurus

Row | Structure (SMILES) | Activity (DNA [1]) | Kb (DNA [2]) | Activity [3] | IC50 (K562) | K [4] | Activity (DNA [5]) | IC50 (HeLa) | Kb [6] | Activity [7] | IC50 (A549) | K (DNA [8])
1 | CN(C)CCN1C(=O)c2ccc3c4c(c(NCCOCCOCCOCCN5CCOCC5)cc(c24)C1=O)C(=O)N(CCN(C)C)C3=O | 25% | 2.3 ×10⁵ /M | 9% | 5.79 µM | 1.5 ×10⁴ /M | Active | 3.8 µM | 1.5 ×10⁴ /M | Active | 2.53 µM | 3.8 ×10⁵ /M
2 | CN(C)CCN1C(=O)c2ccc3c4c(c(NCCOCCOCCOCCN5CCCC5)cc(c24)C1=O)C(=O)N(CCN(C)C)C3=O |  |  |  | 7.1 µM |  |  | 5.17 µM |  |  | 7.12 µM | 
3 | CN(C)CCN1C(=O)c2ccc3c4c(c(NCCOCCOCCN5CCCC5)cc(c24)C1=O)C(=O)N(CCN(C)C)C3=O |  |  |  | 2.52 µM |  |  | 5 µM |  |  | 2.91 µM | 
4 | CN(C)CCN1C(=O)c2ccc3c4c(c(NCCOCCOCCOCCN5CCN(C)CC5)cc(c24)C1=O)C(=O)N(CCN(C)C)C3=O |  |  |  | 3.63 µM |  |  | 2.88 µM |  |  | 7.42 µM | 
5 | CN(C)CCN1C(=O)c2ccc3c4c(c(NCCOCCOCCN5CCN(C)CC5)cc(c24)C1=O)C(=O)N(CCN(C)C)C3=O |  |  |  | 2.78 µM |  |  | 9.8 µM |  |  | 6.87 µM | 
6 | CN(C)CCN1C(=O)c2ccc3c4c(c(NCCOCCN5CCN(C)CC5)cc(c24)C1=O)C(=O)N(CCN(C)C)C3=O |  |  |  | 3.03 µM |  |  | 5.19 µM |  |  | 2.94 µM | 
7 | CN(C)CCN1C(=O)c2ccc3c4c(c(NCCOCCOCCN5CCOCC5)cc(c24)C1=O)C(=O)N(CCN(C)C)C3=O | 28% | 4.5 ×10⁵ /M | 11% | 1.48 µM | 2.3 ×10⁴ /M | Active | 5.93 µM | 4.8 ×10⁴ /M | Active | 2.83 µM | 5.4 ×10⁵ /M
8 | CN(C)CCN1C(=O)c2ccc3c4c(c(NCCOCCOCCOCCN5CCCCC5)cc(c24)C1=O)C(=O)N(CCN(C)C)C3=O |  |  |  | 2.94 µM |  |  | 4.06 µM |  |  | 6.87 µM | 

These reach a lower IC50 (K562). Values come first.

Row | Activity (DNA [1]) | Kb (DNA [2]) | Activity [3] | IC50 (K562) | K [4] | Activity (DNA [5]) | IC50 (HeLa) | Kb [6] | Activity [7] | IC50 (A549) | K (DNA [8]) | Structure (SMILES)
9 |  |  |  | 1.24 µM |  |  | 5.95 µM |  |  | 2.93 µM |  | CN(C)CCN1C(=O)c2ccc3c4c(c(NCCOCCOCCN5CCCCC5)cc(c24)C1=O)C(=O)N(CCN(C)C)C3=O
10 |  |  |  | 0.59 µM |  |  | 2.15 µM |  |  | 2.03 µM |  | CN(C)CCN1C(=O)c2ccc3c4c(c(NCCOCCN5CCCC5)cc(c24)C1=O)C(=O)N(CCN(C)C)C3=O
11 | 31% | 2.1 ×10⁶ /M | 13% | 0.67 µM | 6.8 ×10⁵ /M | Active | 2.61 µM | 2.8 ×10⁵ /M | Active | 2.95 µM | 3.9 ×10⁶ /M | CN(C)CCN1C(=O)c2ccc3c4c(c(NCCOCCN5CCOCC5)cc(c24)C1=O)C(=O)N(CCN(C)C)C3=O
12 |  |  |  | 0.61 µM |  |  | 2.08 µM |  |  | 2.19 µM |  | CN(C)CCN1C(=O)c2ccc3c4c(c(NCCOCCN5CCCCC5)cc(c24)C1=O)C(=O)N(CCN(C)C)C3=O
